Measured values taken from US5529989A (Arizona Board of Regents acting on behalf of Arizona State …, priority 1995, dated 1996).
≈ marks a conversion by molar mass, not a printed value. Entries after “also recorded” stand apart in the source; their conditions may differ.

Experiments:
[1] = stability of the phosphoric acid; type: physicochemical; details: isolated after hydrogenolysis
[2] = system: U.S. National Cancer Institute's (NCI) panel of sixty human cancer cell lines; test: cancer cell growth inhibition, NCI panel of sixty human cancer cell lines; type: cell-based
Experimental: (§1) There is no mathematical difference between ED50 and GI50, which are both calculated using the same formula. The only difference is historical usage.
Total Growth Inhibition ("TGI"), is the drug dose needed to yield zero percent growth, i.e., just as many cells at the end of the experiment as were present in the beginning. Whether just as many cells were killed as were produced (steady state), or no growth occurred (total inhibition), cannot be distinguished.
(§2) Each drug is tested at five (5) doses: 100--10--1--0.1--0.01 μg/ml. Percent Growths are calculated for each dose. […] The log of the dose is used during the regression computation.
(§3) At the start of an experiment, cells from the in vitro cell cultures are inoculated into the appropriate tubes or microtiter plates. One set of control tubes/plates is immediately counted to determine the number of cells at the start of the experiment. This is the "baseline count" or "Tzero reading". At the end of the experiment (48 hours later) a second set of control tubes/plates is analyzed to determine the "Control Growth" value. The growth (or death) of cells relative to the initial quantity of cells is used to define the "Percent of Growth".

[3] = system: murine P388 lymphocytic leukemia cell line; details: from U.S. Pat. No. 4,985,436, cited from earlier work
[4] = system: murine P388 lymphocytic leukemia; details: 0.75-12.5 mg/kg host body weight, from U.S. Pat. No. 4,985,436; cited from earlier work
[5] = system: M5074 murine ovary sarcoma; details: 0.38 to 3.0 mg active reagent/kg host body weight; from U.S. Pat. No. 4,985,436; cited from earlier work
[6] = system: M5074 murine ovary sarcoma; details: 6 mg/kg host body weight; from U.S. Pat. No. 4,985,436; cited from earlier work
[7] = system: experimental melanoma and ovary carcinoma; details: cited from earlier work
RNA viruses = details: cited from earlier work
[8] = cited from earlier work
water solubility = type: physicochemical
[9] = system: murine P388 lymphocytic leukemia cell line; test: growth inhibition of murine P388 lymphocytic leukemia cell line in vitro; type: cell-based
Experimental: as §1, §2, §3

cancer cell = cancer cell growth inhibitory comparison of pancratistatin with its phosphate prodrug; type: cell-based; details: versus pancratistatin (1)
Experimental: as §1, §2, §3

| SMILES | stability [1] | direct comparison of phosphate (5) and pancratistatin (1) [2] | ED50 ([3]; P388 in vitro cell line, 2880 min) [µg/mL] | inhibition of growth of P388 in vitro cell line (in words) [3] | life extension [4] | life extension [5] | cure rate [6] [%] | activity against experimental melanoma and ovary carcinoma [7] | activity against a range of RNA viruses (RNA viruses) | solubility in water (in words) [8] | solubility (water solubility) [mg/mL] | GI50 ([9]; Mus musculus, 48 h, murine P388 lymphocytic leukemia cell line, dose needed to reduce the percent growth to 50%, read-out: ED50 (the source's name)) [µg/mL] | ED50 compared with pancratistatin (1) ([9]; murine P388 lymphocytic leukemia, versus pancratistatin (1)) | cancer cell growth inhibition compared with pancratistatin (1) (cancer cell) |
| --- | --- | --- | --- | --- | --- | --- | --- | --- | --- | --- | --- | --- | --- | --- |
| CC(=O)O[C@@H]1[C@@H](OC(C)=O)[C@H](OC(C)=O)[C@@H]2c3cc4c(c(OP(=O)(O)O)c3C(=O)N[C@H]2[C@@H]1OC(C)=O)OCO4 [4b, 7-phosphoryl-pancratistatin tetraacetate] | unstable | – | – | – | – | – | – | – | – | – | – | – | – | – |
| O=C1N[C@H]2[C@H](O)[C@H](O)[C@@H](O)[C@H](O)[C@@H]2c2cc3c(c(O)c21)OCO3 [pancratistatin] | – | comparable results for both compounds | 0.001 (≈ 3.07 nM) | markedly inhibited growth | 38-106% | 53% to 84 | 50 | potent activity | activity against a range of RNA viruses | at best sparingly soluble in water | – | – | – | – |
| O=C1N[C@H]2[C@H](O)[C@H](O)[C@@H](O)[C@H](O)[C@@H]2c2cc3c(c(OP(=O)(O)O)c21)OCO3 [compound (5), Disodium 7-Phosphoryl-Pancratistatin] | – | comparable results for both compounds | – | – | – | – | – | – | – | – | > 230 | 0.032 | essentially comparable to that found for pancratistatin (1) | same cancer cell growth inhibition as pancratistatin (1); also recorded: very comparable results |
